In patent US20090004185A1, “AMINO-SUBSTITUTED QUINAZOLINE DERIVATIVES AS INHIBITORS OF BETA-CATENIN/TCF-4 PATHWAY AND CANCER TREATMENT AGENTS” (WYETH, priority 2007, published 2009) one finds IC50 data, which are given here for 20 molecules.

SMILES strings stand for the structures.

The test system of one test is SV40-Luc. As to the kind of experiment: SV40-Luc control luciferase reporter assay, SV 5A8 cell line (SV40-Luc and SV40-R-Luc), control for non-specific inhibitors. To be noted: Homo sapiens, SV5A8, 24 h, SV 5A8 cells derived from SW480; 24 hours of incubation with compound; ratio Firefly/Renilla luciferase. Type of test: cell-based, human. The source says:
Background cell line: SW480 colorectal carcinoma DNA constructs: […]
(§1) 2) SV40-Luc: SV40 binding site driving Firefly Luciferase in the pGL3 vector—as a control for non-specific inhibitors; and
(§2) 3) SV40-R-Luc: SV40 binding site driving Renilla Luciferase in the pGL3 vector—as an internal control for cell number and toxicity.
This screen uses 3 cell lines derived from SW480 and selected to contain the above luciferase reporters integrated into their chromosomes as follows:
SV 5A8—SV40-Luc and SV40-R-Luc
(§3) Cells: Tcf22C11 and SV5A8 were grown in the presence of 500 μg/ml G418 and Tcf 33.13 was grown in the presence of 500 μg/ml G418+125 μg/ml Zeocin to maintain the integrated reporters. The cells were trypsinized and plated at 1×10^4 cells/well in opaque 96 well plates.
Compounds: 20-24 hours after cell plating, compounds were added at titrated concentrations between […]. The compounds were diluted as follows: The compounds were stored frozen in dimethyl sulfoxide (DMSO) at […]. Compounds were initially titrated in DMSO to make a 1000×DMSO stock solution. Compounds were then diluted 1:25 into media/DMSO (DMEM+10% FBS+9% DMSO). Using the Biomek Multimek, the diluted compounds were mixed well and immediately added to the plated cells in a 1:40 dilution. The final concentration of DMSO in the assay plates was 0.316% DMSO.
(§4) Assay Readout: The luciferase signal was detected using a luciferase detection kit from Promega. Until December 2003, Promega's Dual-Luciferase® Reporter (DLR™) Assay System was used to detect luciferase activity. Briefly, after 24 hours of incubation with compound, culture media was removed by aspiration and 20 ul of passive lysis buffer (Promega) per well was added. The plates were shaken for 15 min. Firefly substrate was then added and the resulting luminescence was immediately read on a CCD camera imaging device or a luminometer. After quantifying the firefly luminescence, the reaction was quenched, and the Renilla luciferase reaction was initiated simultaneously by adding Stop & Glo® Reagent to the same sample. Renilla luciferase was then quantified using the CCD camera or luminometer.
(§5) Promega's Dual-Glo™ Luciferase Assay System can be used for luciferase detection. It was similar to the DLR Assay, however, unlike the DLR which has to be read immediately due to decaying signal, the signal in the Dual-Glo™ Luciferase Assay was stable for up to 2 hours. Briefly, after 24 hours of incubation with compound, culture media was removed by aspiration and 75 ul of fresh medium was added. Add 75 ul of Dual-Glo Luciferase Reagent (Promega) to each well and mix by shaking for 10 minutes on a plate shaker. Then, measure the firefly luminescence on a CCD camera imaging device or a luminometer. After quantifying the firefly luminescence, add 75 ul of Dual-Glo Stop & Glo Reagent (Promega) to each well and mix for 10 minutes. Renilla luciferase was then quantified using the CCD camera or luminometer.
(§6) This assay was meant to confirm primary leads and determine IC50s. Compounds were tested at titrated dilutions. The raw data for this assay was reported in protocol 2463-B. Protocol 2463-C contains the IC50 calculations based on the raw data. The data calculations were done as follows:
(§7) The data was expressed as % of control for both Firefly and Renilla Luciferase. The ratio of FF/Renilla (F/R) was then calculated and averaged between duplicate plates. The data was then plotted using LSW Data Analysis in Microsoft Excel. IC50s were determined by plotting the data in the LSW Data Analysis program using model 33. The IC50s (nM) for all three cell lines were reported.
For orientation: A reporter such as luciferase makes a cellular process visible.

For the next test, the system named is β-catenin/Tcf-4. As to the kind of experiment: cells. Type of test: cell-based. Conditions: Homo sapiens, 24 hours of incubation with compound, ratio Firefly/Renilla luciferase.
Text: Background cell line: SW480 colorectal carcinoma DNA constructs:
1) Tcf-4-Luc: Tcf-4 binding sites driving Firefly Luciferase in the pGL3 vector—to measure the activity of β-catenin/Tcf-4;
as §1, §2
This screen uses 3 cell lines derived from SW480 and selected to contain the above luciferase reporters integrated into their chromosomes as follows: […]
as §3
The compounds were diluted as follows: The compounds were stored frozen in dimethyl sulfoxide (DMSO) at […]. Compounds were initially titrated in DMSO to make a 1000×DMSO stock solution. Compounds were then diluted 1:25 into media/DMSO (DMEM+10% FBS+9% DMSO). Using the Biomek Multimek, the diluted compounds were mixed well and immediately added to the plated cells in a 1:40 dilution. The final concentration of DMSO in the assay plates was 0.316% DMSO.
as §4
as §5, with “It was similar to the DLR Assay, however, unlike the DLR which has to be read immediately due to decaying signal, the signal in the Dual-Glo™ Luciferase Assay was stable for up to 2 hours.” left out
as §6, §7

[1] abbreviates: SW480, 24 h, Tcf 33.13 cells derived from SW480.
[2] abbreviates: Tcf22C11, 24 h, Tcf 22C11 cells derived from SW480.

With `CN(C)c1nc(NCc2ccc(NC(=O)C3CCN(Cc4ccccc4)CC3)cc2)c2cc(I)ccc2n1` [Example 74, 1-benzyl-N-[4-({[2-(dimethylamino)-6-iodoquinazolin-4-yl]amino}methyl)phenyl]piperidine-4-carboxamide], the IC50 (usually the midpoint of a concentration-inhibition curve) was above 8060 nM with SV40-Luc, 1380 nM in the test with β-catenin/Tcf-4 (setting [1]) and 950 nM with β-catenin/Tcf-4 (setting [2]). On the same counts, the results for `Cc1ccc2c(NCc3ccc(NC(=O)C4CCN(Cc5ccccc5)CC4)cc3)nc(N(C)Cc3ccccc3)nc2c1` [Example 142, 1-benzyl-N-{4-[({2-[benzyl(methyl)amino]-7-methylquinazolin-4-yl}amino)methyl]phenyl}-piperidine-4-carboxamide] are above 4280 nM, 677 nM and 573 nM. Turning to `Cc1ccc2c(NCc3ccc(NC(=O)C4CCN(Cc5ccccc5)CC4)cc3)nc(N3CCN(c4ncccn4)CC3)nc2c1` [Example 136, 1-benzyl-N-[4-({[7-methyl-2-(4-pyrimidin-2-ylpiperazin-1-yl)quinazolin-4-yl]amino}methyl)phenyl]piperidine-4-carboxamide], the values for the IC50 in the test on SV40-Luc, in the test on β-catenin/Tcf-4 (setting [1]) and in the test on β-catenin/Tcf-4 (setting [2]) were above 15900 nM, 365 nM and 494 nM, respectively. As to `Cc1ccc2nc(N(C)Cc3ccccn3)nc(NCc3ccc(NC(=O)c4ccc(F)cc4)cc3)c2c1` [Example 58, 4-fluoro-N-{4-[({6-methyl-2-[methyl(pyridin-2-ylmethyl)amino]quinazolin-4-yl}amino)methyl]phenyl}benzamide], the IC50 turned out to be 4190 nM in the test on SV40-Luc, 2080 nM in the test with β-catenin/Tcf-4 (setting [1]) and 2500 nM with β-catenin/Tcf-4 (setting [2]). On the same counts, the results for `COC(=O)c1ccc2nc(N(C)C)nc(NCc3ccc(NC(=O)c4ccc(F)cc4)cc3)c2c1` [Example 70, methyl 2-(dimethylamino)-4-({4-[(4-fluorobenzoyl)amino]benzyl}amino)quinazoline-6-carboxylate] are above 10600 nM, 1480 nM and 2140 nM. `CN(C)c1nc(NCc2ccc(NC(=O)C3CCN(Cc4ccccc4)CC3)cc2)c2ccccc2n1` [Example 146, 1-benzyl-N-[4-({[2-(dimethylamino)quinazolin-4-yl]amino}methyl)phenyl]piperidine-4-carboxamide]: the results for the IC50 in the test with SV40-Luc, in the test with β-catenin/Tcf-4 (setting [1]) and with β-catenin/Tcf-4 (setting [2]) were above 10100 nM, 1770 nM and 2000 nM, respectively. In the case of `Cc1ccc2nc(N3CCN[C@H](C)C3)nc(NCc3ccc(NC(=O)C4CCN(Cc5ccccc5)CC4)cc3)c2c1` [Example 85, 1-benzyl-N-{4-[({6-methyl-2-[(3R)-3-methylpiperazin-1-yl]quinazolin-4-yl}amino)methyl]phenyl}piperidine-4-carboxamide], the 50% inhibitory concentration (IC50) was above 2220 nM in the test on SV40-Luc, 530 nM in the test with β-catenin/Tcf-4 (setting [1]) and 771 nM in the test on β-catenin/Tcf-4 (setting [2]).

As for `CC(O)c1ccc2c(NCc3ccc(NC(=O)c4ccc(F)cc4)cc3)nc(N(C)C)nc2c1` (stereo not shown) [Example 95, N-[4-({[2-(dimethylamino)-7-(1-hydroxyethyl)quinazolin-4-yl]amino}methyl)phenyl]-4-fluorobenzamide], the half-inhibitory concentration (IC50) in the test with SV40-Luc is above 20200 nM. The same measure, in the same setting: under `CNc1nc(NCc2ccc(NC(=O)c3ccc(Cl)nc3)cc2)c2ccccc2n1` [Example 3, 6-chloro-N-[4-({[2-(methylamino)quinazolin-4-yl]amino}methyl)phenyl]nicotinamide] stands above 2980 nM. Same read-out and setting: under `Cc1ccc2c(NCc3ccc(NC(=O)c4ccc(F)cc4)cc3)nc(N3CCN[C@H](C)C3)nc2c1` [Example 225, 4-fluoro-N-{4-[({7-methyl-2-[(3R)-3-methylpiperazin-1-yl]quinazolin-4-yl}amino)methyl]phenyl}benzamide] stands above 2580 nM; under `Cc1ccc2c(NCc3ccc(NC(=O)c4ccc(F)cc4)cc3)nc(N3CCNC(C)(C)C3)nc2c1` [Example 236, N-[4-({[2-(3,3-dimethylpiperazin-1-yl)-7-methylquinazolin-4-yl]amino}methyl)phenyl]-4-fluorobenzamide], above 5010 nM. Turning to `Cc1ccc2c(NCc3ccc(NC(=O)c4ccc(F)cc4)cc3)nc(N3CCN(C)CC3)nc2c1` [Example 204, 4-fluoro-N-[4-({[7-methyl-2-(4-methylpiperazin-1-yl)quinazolin-4-yl]amino}methyl)phenyl]benzamide], in the test with SV40-Luc, the IC50 was above 10300 nM. Still for that read-out and setting: next, `Cc1ccc2c(NCc3ccc(NC(=O)c4ccc(F)cc4)cc3)nc(N3CCOCC3)nc2c1` [Example 207, 4-fluoro-N-(4-{[(7-methyl-2-morpholin-4-ylquinazolin-4-yl)amino]methyl}phenyl)benzamide]: above 10600 nM. On the same count and under the same terms, next, `CNc1nc(NCc2ccc(NC(=O)c3ccc(Cl)cc3)cc2)c2c(C)cccc2n1` [Example 193, 4-chloro-N-[4-({[5-methyl-2-(methylamino)quinazolin-4-yl]amino}methyl)phenyl]benzamide]: above 2890 nM; `Cc1ccc2c(NCc3ccc(NC(=O)c4ccc(F)cc4)cc3)nc(N3CCCC3)nc2c1` [Example 209, 4-fluoro-N-(4-{[(7-methyl-2-pyrrolidin-1-ylquinazolin-4-yl)amino]methyl}phenyl)benzamide]: above 2740 nM; `CN(C)c1nc(NCc2ccc(NC(=O)c3ccc(F)cc3)cc2)c2ccc(C#N)cc2n1` [Example 89, N-[4-({[7-cyano-2-(dimethylamino)quinazolin-4-yl]amino}methyl)phenyl]-4-fluorobenzamide]: above 21000 nM. With `CNc1nc(NCc2ccc(NC(=O)c3ccc(Cl)nc3)cc2)c2cccc(C)c2n1` [Example 183, 6-chloro-N-[4-({[8-methyl-2-(methylamino)quinazolin-4-yl]amino}methyl)phenyl]nicotinamide], the IC50 in the test with SV40-Luc is above 2890 nM.

With `CN(C)c1nc(NCc2ccc(NC(=O)c3ccc(F)cc3)cc2)c2ccc(I)cc2n1` [Example 86, N-[4-({[2-(dimethylamino)-7-iodoquinazolin-4-yl]amino}methyl)phenyl]-4-fluorobenzamide], in the test on SV40-Luc, the IC50 is above 18500 nM.

`CNc1nc(NCc2ccc(NC(=O)c3ccnc(Cl)c3)cc2)c2ccccc2n1` [Example 4, 2-chloro-N-[4-({[2-(methylamino)quinazolin-4-yl]amino}methyl)phenyl]isonicotinamide]: the IC50 in the test with SV40-Luc was above 2980 nM. Consider `CN(C)c1nc(NCc2ccc(NC(=O)c3ccc(F)cc3)cc2)c2ccc(C=O)cc2n1` [Example 92, N-[4-({[2-(dimethylamino)-7-formylquinazolin-4-yl]amino}methyl)phenyl]-4-fluorobenzamide], for which, in the test on SV40-Luc, the IC50 was above 17900 nM.
